In brackets after ≈: the same amount, converted by molar mass.
Columns and labels:
[1] = biological target: T1, Vascular endothelial growth factor receptor 2 (Homo sapiens, UniProt P35968)
[2] = biological target: Vascular endothelial growth factor receptor 1 (Homo sapiens, UniProt P17948); test: Inhibition of VEGFR-1 (unknown origin)
[3] = biological target: Vascular endothelial growth factor receptor 3 (Homo sapiens, UniProt P35916); test: Inhibition of VEGFR-3 (unknown origin)
[4] = system: A549; test: cells; settings: Homo sapiens, A549, 48 h
[5] = system: MCF7; test: cells; settings: Homo sapiens, MCF7, 48 h
[6] = system: NCI-H460; test: cells; settings: Homo sapiens, NCI-H460, 48 h
[7] = system: Macrophage; test: cells; settings: Homo sapiens, 48 h
[8] = biological target: T1, Vascular endothelial growth factor receptor 2; test: Inhibition of human VEGFR-2 using biotinylated synthetic peptide biotin-aminohexyl-EEEEYFELVAKKKK-NH2 as substrate pre-incubated for 30 mins and measured after 30 mins by FRET assay
[9] = system: HUVEC; test: Antiproliferative activity against VEGF-stimulated HUVEC cells assessed as cell growth inhibition measured after 24 hrs by BrdUrd incorporation based spectrophotometric analysis; assay type: functional; settings: Homo sapiens
[10] = system: MCF7; test: Induction of cell cycle arrest in human MCF7 cells assessed as reduction in accumulation of cells in G2/M phase at 10 uM incubated for 24 hrs by PI staining based flow cytometry analysis relative to control; assay type: functional; parameters: scale not given: the % may be the effect or the level left
[11] = system: MCF7; test: Cytotoxicity against human MCF7 cells assessed as reduction in cell growth incubated for 24 hrs by MTT assay; assay type: functional, cell-based; settings: MCF7, 24 h
[12] = system: HCT-116; test: Antiproliferative activity against human HCT-116 cells assessed as reduction in cell growth incubated for 24 hrs by MTT assay; assay type: functional, cell-based; settings: HCT-116, 24 h
[13] = system: MCF7; test: Antiproliferative activity against human MCF7 cells assessed as reduction in cell growth incubated for 24 hrs by MTT assay; assay type: functional, cell-based; settings: MCF7, 24 h
[14] = system: HepG2; test: Antiproliferative activity against human HepG2 cells assessed as reduction in cell growth measured after 24 hrs by MTT assay; assay type: functional, cell-based; settings: HepG2, 24 h
[15] = system: PC-3; test: Antiproliferative activity against human PC-3 cells assessed as reduction in cell growth measured after 24 hrs by MTT assay; assay type: functional, cell-based; settings: PC-3, 24 h
[16] = system: MCF7; test: Antiproliferative activity against human MCF7 cells assessed as reduction in cell growth measured after 24 hrs by MTT assay; assay type: functional, cell-based; settings: MCF7, 24 h
[17] = Antiproliferative activity against human WI-38 cells assessed as reduction in cell growth measured after 24 hrs by MTT assay; assay type: toxicity, cell-based
[18] = biological target: T1, Vascular endothelial growth factor receptor 2; remark: listed apart in the source
[19] = system: MDA-MB-231; test: Cytotoxicity against human MDA-MB-231 cells assessed as reduction in cell viability incubated for 24 hrs by MTT assay; assay type: functional, cell-based; settings: MDA-MB-231, 24 h
[20] = system: MDA-MB-231; test: Cytotoxicity against human MDA-MB-231 cells assessed as reduction in cell viability incubated for 48 hrs by MTT assay; assay type: functional, cell-based; settings: MDA-MB-231, 48 h
[21] = system: B16; test: Antiproliferative activity against mouse B16 cells assessed as reduction in cell viability incubated for 48 hrs by MTT assay; assay type: functional, cell-based; settings: B16, 48 h
[22] = system: HepG2; test: Cytotoxicity against human HepG2 cells assessed as cell growth inhibition; assay type: functional, cell-based
[23] = system: HCT-116; test: Cytotoxicity against human HCT-116 cells assessed as cell growth inhibition; assay type: functional, cell-based
[24] = system: WISH; test: Cytotoxicity against human WISH cells assessed as cell growth inhibition; assay type: functional, cell-based
[25] = system: HCT-116; test: cells; settings: Homo sapiens, HCT-116, 48 h
[26] = system: MCF7; test: cells; settings: Homo sapiens, MCF7, 48 h; remark: listed apart in the source
[27] = system: MHCC97H; test: Antiproliferative activity against human MHCC97H cells assessed as reduction in cell viability incubated for 48 hrs by CCK-8 assay; assay type: functional, cell-based
[28] = system: HUVEC; test: Antiproliferative activity against HUVEC cells assessed as reduction in cell viability incubated for 48 hrs by CCK-8 assay; assay type: functional, cell-based; settings: Homo sapiens
[29] = system: HEK293; test: Cytotoxicity against HEK293 cells assessed as cell growth inhibition measured after 48 hrs by CCK-8 assay; assay type: functional, cell-based; settings: Homo sapiens, HEK293, 48 h
[30] = system: L02; test: Cytotoxicity against human L02 cells assessed as cell growth inhibition measured after 48 hrs by CCK-8 assay; assay type: functional, cell-based; settings: L02, 48 h
[31] = system: HCT-116; test: Antiproliferative activity against human HCT-116 cells assessed as cell growth inhibition measured after 48 hrs by MTT assay; assay type: functional, cell-based; settings: HCT-116, 48 h
[32] = system: MCF7; test: Antiproliferative activity against human MCF7 cells assessed as cell growth inhibition measured after 48 hrs by MTT assay; assay type: functional, cell-based; settings: MCF7, 48 h
[33] = system: A549; test: Antitumor activity against human A549 cells assessed as reduction in cell viability incubated for 48 hrs by CCK-8 assay; assay type: functional, cell-based; settings: A549, 48 h
[34] = system: HT-29; test: Antitumor activity against human HT-29 cells assessed as reduction in cell viability incubated for 48 hrs by CCK-8 assay; assay type: functional, cell-based; settings: HT-29, 48 h
[35] = system: MCF7; test: Antitumor activity against human MCF7 cells assessed as reduction in cell viability incubated for 48 hrs by CCK-8 assay; assay type: functional, cell-based; settings: MCF7, 48 h
[36] = system: HepG2; test: Antiproliferative activity against human HepG2 cells assessed as reduction in cell growth incubated for 48 hrs by MTT based colorimetric analysis; assay type: functional; settings: HepG2, 48 h

T1 sequence (P35968 whole entry): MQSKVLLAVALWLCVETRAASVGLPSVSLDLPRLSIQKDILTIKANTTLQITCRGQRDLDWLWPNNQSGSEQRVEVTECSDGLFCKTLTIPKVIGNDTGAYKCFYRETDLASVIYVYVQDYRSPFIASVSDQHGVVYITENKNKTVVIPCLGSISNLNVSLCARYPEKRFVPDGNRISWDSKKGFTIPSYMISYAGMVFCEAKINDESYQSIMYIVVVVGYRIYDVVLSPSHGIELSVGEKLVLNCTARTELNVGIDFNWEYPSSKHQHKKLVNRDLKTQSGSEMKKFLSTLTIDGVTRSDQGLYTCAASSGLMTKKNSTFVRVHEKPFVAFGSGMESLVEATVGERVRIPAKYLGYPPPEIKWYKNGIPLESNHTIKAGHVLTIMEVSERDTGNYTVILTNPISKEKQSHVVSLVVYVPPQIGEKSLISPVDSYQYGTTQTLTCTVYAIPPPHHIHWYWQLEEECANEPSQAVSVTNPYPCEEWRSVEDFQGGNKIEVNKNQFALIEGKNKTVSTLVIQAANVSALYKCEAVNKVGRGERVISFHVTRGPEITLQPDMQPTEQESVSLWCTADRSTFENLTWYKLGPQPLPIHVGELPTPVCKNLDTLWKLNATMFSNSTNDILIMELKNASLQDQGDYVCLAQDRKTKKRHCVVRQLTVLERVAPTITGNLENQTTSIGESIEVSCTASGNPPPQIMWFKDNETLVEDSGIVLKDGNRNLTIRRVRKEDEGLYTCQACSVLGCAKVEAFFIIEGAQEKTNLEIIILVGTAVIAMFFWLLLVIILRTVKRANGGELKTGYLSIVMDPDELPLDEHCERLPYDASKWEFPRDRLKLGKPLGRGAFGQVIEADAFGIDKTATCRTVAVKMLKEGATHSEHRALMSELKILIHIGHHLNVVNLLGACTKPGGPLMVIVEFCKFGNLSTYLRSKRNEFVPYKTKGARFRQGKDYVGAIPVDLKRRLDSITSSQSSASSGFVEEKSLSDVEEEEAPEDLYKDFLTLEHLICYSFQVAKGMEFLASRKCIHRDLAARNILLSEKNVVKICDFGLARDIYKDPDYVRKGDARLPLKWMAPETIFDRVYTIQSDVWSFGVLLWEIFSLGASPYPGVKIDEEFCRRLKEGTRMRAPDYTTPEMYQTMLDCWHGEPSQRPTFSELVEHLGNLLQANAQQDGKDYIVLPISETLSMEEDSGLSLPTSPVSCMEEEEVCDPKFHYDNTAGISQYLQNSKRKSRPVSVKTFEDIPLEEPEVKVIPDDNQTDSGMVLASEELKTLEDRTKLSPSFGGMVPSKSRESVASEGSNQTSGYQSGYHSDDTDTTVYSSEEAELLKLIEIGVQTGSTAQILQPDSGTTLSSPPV
Vascular endothelial growth factor receptor 1, sequence (P17948 whole entry): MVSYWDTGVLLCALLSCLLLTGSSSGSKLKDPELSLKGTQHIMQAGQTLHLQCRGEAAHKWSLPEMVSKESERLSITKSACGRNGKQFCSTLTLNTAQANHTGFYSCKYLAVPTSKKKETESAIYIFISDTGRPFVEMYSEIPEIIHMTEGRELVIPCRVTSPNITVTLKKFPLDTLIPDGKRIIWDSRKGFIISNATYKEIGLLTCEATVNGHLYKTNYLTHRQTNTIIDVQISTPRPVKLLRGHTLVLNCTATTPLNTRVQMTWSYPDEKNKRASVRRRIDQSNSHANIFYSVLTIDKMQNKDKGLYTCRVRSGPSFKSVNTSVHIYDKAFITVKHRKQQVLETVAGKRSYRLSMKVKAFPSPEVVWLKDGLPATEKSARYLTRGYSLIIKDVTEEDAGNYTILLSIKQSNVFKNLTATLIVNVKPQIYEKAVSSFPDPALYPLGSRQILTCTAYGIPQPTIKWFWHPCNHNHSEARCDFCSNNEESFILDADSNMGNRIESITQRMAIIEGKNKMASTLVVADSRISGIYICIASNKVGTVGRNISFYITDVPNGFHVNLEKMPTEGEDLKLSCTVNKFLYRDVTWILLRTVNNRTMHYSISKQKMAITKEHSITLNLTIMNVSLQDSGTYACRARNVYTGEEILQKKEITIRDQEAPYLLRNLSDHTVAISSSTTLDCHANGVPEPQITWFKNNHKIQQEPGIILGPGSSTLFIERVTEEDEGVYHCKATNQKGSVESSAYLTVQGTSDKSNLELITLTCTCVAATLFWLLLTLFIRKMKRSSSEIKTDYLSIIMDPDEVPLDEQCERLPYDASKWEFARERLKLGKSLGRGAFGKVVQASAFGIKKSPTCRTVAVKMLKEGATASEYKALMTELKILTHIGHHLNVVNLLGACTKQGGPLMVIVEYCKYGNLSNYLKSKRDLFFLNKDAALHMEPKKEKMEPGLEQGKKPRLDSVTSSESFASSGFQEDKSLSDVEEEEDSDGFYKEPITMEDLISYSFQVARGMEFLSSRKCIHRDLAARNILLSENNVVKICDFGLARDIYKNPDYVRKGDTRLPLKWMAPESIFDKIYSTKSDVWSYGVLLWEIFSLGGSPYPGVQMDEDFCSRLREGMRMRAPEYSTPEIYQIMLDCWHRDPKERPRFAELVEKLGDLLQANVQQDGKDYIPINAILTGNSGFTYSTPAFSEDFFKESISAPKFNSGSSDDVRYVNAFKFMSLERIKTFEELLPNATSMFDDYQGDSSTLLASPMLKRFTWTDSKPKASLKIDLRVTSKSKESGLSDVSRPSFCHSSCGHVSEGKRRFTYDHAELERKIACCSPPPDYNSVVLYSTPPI
Vascular endothelial growth factor receptor 3, sequence (P35916 whole entry): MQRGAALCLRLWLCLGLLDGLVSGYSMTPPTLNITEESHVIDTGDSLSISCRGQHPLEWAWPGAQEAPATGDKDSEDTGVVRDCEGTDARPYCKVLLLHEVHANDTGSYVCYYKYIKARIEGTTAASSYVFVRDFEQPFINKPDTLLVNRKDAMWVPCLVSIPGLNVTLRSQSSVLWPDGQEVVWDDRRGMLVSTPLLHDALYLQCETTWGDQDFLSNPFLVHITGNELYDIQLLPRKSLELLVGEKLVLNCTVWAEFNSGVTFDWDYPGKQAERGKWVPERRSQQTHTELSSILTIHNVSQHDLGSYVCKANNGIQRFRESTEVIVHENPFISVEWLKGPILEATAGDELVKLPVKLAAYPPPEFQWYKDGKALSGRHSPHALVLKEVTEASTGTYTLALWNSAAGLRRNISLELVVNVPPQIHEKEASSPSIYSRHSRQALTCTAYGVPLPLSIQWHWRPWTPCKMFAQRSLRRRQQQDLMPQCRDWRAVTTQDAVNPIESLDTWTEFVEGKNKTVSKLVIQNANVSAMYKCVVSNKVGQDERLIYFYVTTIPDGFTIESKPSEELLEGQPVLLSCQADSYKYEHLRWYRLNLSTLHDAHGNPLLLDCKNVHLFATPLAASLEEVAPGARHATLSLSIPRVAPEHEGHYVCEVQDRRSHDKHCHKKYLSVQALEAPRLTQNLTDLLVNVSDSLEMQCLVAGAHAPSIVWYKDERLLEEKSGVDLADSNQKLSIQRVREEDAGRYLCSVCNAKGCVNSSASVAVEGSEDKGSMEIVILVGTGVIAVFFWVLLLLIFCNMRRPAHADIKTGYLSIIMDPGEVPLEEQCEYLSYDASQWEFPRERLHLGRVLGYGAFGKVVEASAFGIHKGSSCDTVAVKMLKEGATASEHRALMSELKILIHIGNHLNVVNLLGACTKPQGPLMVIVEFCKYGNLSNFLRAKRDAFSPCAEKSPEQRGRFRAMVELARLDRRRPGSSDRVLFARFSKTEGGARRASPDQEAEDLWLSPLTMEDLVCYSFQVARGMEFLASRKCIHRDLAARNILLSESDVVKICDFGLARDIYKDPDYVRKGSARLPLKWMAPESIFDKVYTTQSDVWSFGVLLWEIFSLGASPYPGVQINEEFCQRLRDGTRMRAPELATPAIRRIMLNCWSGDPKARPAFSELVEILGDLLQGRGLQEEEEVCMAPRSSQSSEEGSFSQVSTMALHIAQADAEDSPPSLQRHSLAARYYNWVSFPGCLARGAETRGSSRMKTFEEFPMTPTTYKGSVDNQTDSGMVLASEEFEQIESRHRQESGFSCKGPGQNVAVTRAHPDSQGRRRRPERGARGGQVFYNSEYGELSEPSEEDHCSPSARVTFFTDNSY

## CCCNC(=O)Nc1ccc(Nc2ncnc3cc(OC)c(OC)cc23)cc1Cl
[1]
  IC50: 160 nM
[2]
  IC50: 170 nM
[3]
  IC50: 125 nM

## Cc1ncc([N+](=O)[O-])n1CCOc1ncnc2ccc([N+](=O)[O-])cc12
[4]
  IC50: 1520 nM
[5]
  IC50: 1610 nM
[6]
  IC50: 1230 nM
[7]
  IC50: 290000 nM

## COc1cc2nc(-c3ccccc3)n(-c3nnc(-c4ccc(Cl)cc4)s3)c(=O)c2cc1OC
[8]
  IC50: 3.8 nM
[9]
  IC50: 5.5 nM

## COc1cc2ncnc(Nc3ccsc3C(=O)Nc3ccc(F)c(Cl)c3)c2cc1OC
[1]
  IC50: 87 nM
[2]
  IC50: 110 nM

## NS(=O)(=O)c1ccc(-n2c(SCC(=O)N/N=C/c3ccc(Cl)cc3Cl)nc3cc4ccccc4cc3c2=O)cc1
[1]
  IC50: 640 nM
[10]
  Activity: 24.17%
[11]
  IC50: 100 nM

## CCn1c(SCC(=O)Nc2ccc(/C(C)=N/O)cc2)nc2ccccc2c1=O
[12]
  IC50: 4830 nM
[13]
  IC50: 4580 nM

## COc1cccc2c1C(=O)c1c(O)c3c(c(O)c1C2=O)C[C@@](O)(C(=O)CO)C[C@@H]3O[C@H]1C[C@H](N)[C@H](O)[C@H](C)O1 [DOXORUBICIN]
[14]
  IC50: 7.94 µg/mL (≈ 14.6 µM)
[15]
  IC50: 8.87 µg/mL (≈ 16.3 µM)
[16]
  IC50: 6.75 µg/mL (≈ 12.4 µM)

## COc1ccc(Cc2nnc(COc3ncnc4ccccc34)o2)cc1OC
[4]
  IC50: 580 nM
[5]
  IC50: 350 nM
[6]
  IC50: 390 nM
[7]
  IC50: 288000 nM

## CCn1c(SCC(=O)NNC(=O)c2ccccc2)nc2ccc([N+](=O)[O-])cc2c1=O
[17]
  IC50 at 24 h: 146 µg/mL (≈ 341 µM)

## COc1cccc(CNC(=O)CSc2nc3ccccc3c(=O)n2-c2ccc(S(N)(=O)=O)cc2)c1OC
[18]
  IC50: 247 nM
[19]
  IC50: 340 nM
[20]
  IC50: 510 nM

## CNC(=O)c1cc(Oc2ccc(NC(=O)Nc3ccc(Cl)c(C(F)(F)F)c3)cc2)ccn1 [SORAFENIB]
[21]
  IC50: 9290 nM
[22]
  IC50: 19300 nM
[23]
  IC50: 6820 nM
[24]
  IC50: 17500 nM
[25]
  IC50: 10600 nM
[26]
  IC50: 17900 nM

## COCCOc1cc2ncnc(Oc3ccc(NC(=O)C4(C(=O)Nc5ccc(F)cc5)CC4)cc3F)c2c2c1OCCO2
[27]
  IC50: 15.1 µg/mL (≈ 25.5 µM)
[28]
  IC50: 12.6 µg/mL (≈ 21.3 µM)
[29]
  IC50: 11.9 µg/mL (≈ 20.1 µM)
[30]
  IC50: 12.2 µg/mL (≈ 20.6 µM)

## C/C(=N\NC(=O)c1ccccc1O)c1ccc(NC(=O)CSc2nc3ccccc3c(=O)n2-c2ccccc2)cc1
[31]
  IC50: 5000 nM
[32]
  IC50: 6770 nM

## Cc1ccc(Nc2ncnc3cc(NC(=O)Nc4ccc(Cl)c(C(F)(F)F)c4)ccc23)cc1
[33]
  IC50: 1760 nM
[34]
  IC50: 810 nM
[35]
  IC50: 2490 nM

## COc1cc2ncnc(Oc3cccc(NC(=S)Nc4ccc(Br)c(C(F)(F)F)c4)c3)c2cc1OC
[21]
  IC50: 5570 nM
[25]
  IC50: 8350 nM
[26]
  IC50: 15700 nM

## CCNC(=S)NS(=O)(=O)c1ccc(NC(=O)CSc2nc3ccccc3c(=O)n2CC)cc1
[36]
  IC50: 4330 nM

— ChEMBL document CHEMBL5625175, “Quinazoline-based VEGFR-2 inhibitors as potential anti-angiogenic agents: A contemporary perspective of SAR and molecular docking studies” (Eur J Med Chem, 2023)
